In patent publication US11767298B2, “Substituted benzimidazoles as inhibitors of transforming growth factor-β kinase” (Duke University, priority 2016, dated 2023):

Columns and labels:
GFP-PfPK9 = GFP-PfPK9 (Plasmodium falciparum, UniProt Q8IEG4); test: ATP-competitive binding assay (ATP-sepharose pull-down, FLECS); conditions: GFP-PfPK9; Kd calculated from EC50 of ATP pull-down dose-response; read-out: Kd, app
Experimental: Primary small-molecule screen. A small-molecule screen was performed similar to a previously reported fluorescence linked enzyme chemoproteomic strategy (FLECS). Briefly, HEK293-GFP-PfPK9 cells were grown in 182-cm^2 tissue culture flasks (Genesee Scientific) and harvested at ˜80% cell confluency. Before assays the culture medium was aspirated, cells were rinsed with ice cold PBS and then they were removed with a cell scraper. Cells were pelleted by centrifugation (2,000 rpm, 4° C., 2 min) and immediately lysed for assays. The pellet was suspended in buffer A (25 mM HEPES, pH 7.4, 150 mM NaCl, 60 mM MgCl2, 1 mM DTT) with 1 μM microcystin, 0.1% Triton X-100 plus a Roche Complete protease inhibitor tablet and then placed on ice for 30 min to facilitate lysis. The supernatant was collected after centrifugation (4,300 rpm, 4° C., 5 min) and used in subsequent screening and titrations experiments. For screening, the supernatant was added to ATP-sepharose beads (1:1) and incubated with agitation at 4° C. for at least 1 hr to allow binding. Following this incubation, the mixture was centrifuged, the ATP resin was washed with 9 column volumes of buffer A with 1 M NaCl and then 9 column volumes of buffer A. The ATP-sepharose medium was reconstituted as a 1:1 slurry with buffer A and then added to 96-well filter plates (50 μL/well) (Corning #3505) using a multichannel pipette (Rainin). The filter plate was on top of black 96-well catch plates (Corning #3915). An ATP dilution series (1-200 mM) was added to each plate as a positive control and DMSO was the negative control. Compounds and controls were all added to 50 μL per well in buffer A. For screening, compounds were tested in singlicate at 500 μM. The final DMSO concentration in every well was 5%. The fluorescence intensity in each well was measured on an EnVision system. Data analyses of screens were carried out in EXCEL (Microsoft, Corp.) and actives were identified as 2×background signal.
All screening positives that were verified with Western blot analysis were purchased from Enamine or Vitas-M laboratory. The purity of compounds 1-5 (shown below) was verified by high-resolution MS (Agilent). Compounds were tested in 8-point dose-response (0-500 μM) experiments in duplicate, essential as described above. The fluorescence intensity in each well was measured using an EnVision system. Dose-response analysis was performed with GraphPad Prism to acquire EC50 values. Determined EC50 values were used to calculate the observed PfPK9 Kd and reported values are the average of 2-3 independent experiments.
Stable cell line generation. The P. falciparum PK9 gene (PlasmoDB accession #PF3D7_1315100) was cloned into the pEGFP-C1 mammalian expression vector (Clontech) in frame with a […] GFP tag. For screening, HEK293 cells were transfected with the resulting PfPK9-pEGFP-C1 vector to generate HEK293-GFP-PfPK9 expressing cells using X-tremeGENE HP transfection reagent (Roche) per the manufacturer instructions. Briefly, the culture medium was replaced at 48 hours post-transfection with medium supplemented with 1 mg/mL G418 sulfate (Life Technologies) to select for stably transfected cells. Following stable cell selection, fluorescence activated cell sorting (FACS) was used to enrich for GFP-PfPK9 expressing cells. Subsequently, FACS sorted HEK293-GFP-PfPK9 cells were cultured with medium supplemented with 0.5 mg/mL G418 sulfate for all following experiments. Protein expression was verified by Western blot analysis probing for anti-GFP and by fluorescence intensity using an EnVision (PerkinElmer) system.
All 14 positive molecules were also tested for their binding affinity to PfPK9 using an optimized ATP-competitive binding assay. EC50 values ranging from low μM to low mM were observed and these EC50 values were used to derive dissociation constants as described previously. […]

P. berghei = test: Liver stage parasite load, luciferase-expressing P. berghei in HepG2 cells; format: cell-based, Plasmodium berghei ANKA; conditions: HepG2 host cells
Experimental: Cell-based anti-Plasmodium assays. For liver stage assays, 15,000 HepG2 or 8,000 Huh7 cells/well were added to 384-well microtiter plates using a multichannel pipette (Rainin). After 2 hours at 37° C., compounds (0-100 μM) were added to cells in duplicate or triplicate in a final concentration of 1% DMSO. DMSO was used as the negative control. Following compound incubation at 37° C. for ˜1 hr, harvested luciferase-expressing P. berghei ANKA sporozoites were added to the plates at a density of 3,000 sporozoites/well. P. berghei ANKA sporozoites were obtained from harvesting the salivary glands of infected A. stephensi mosquitoes. The plates were spun for 10 min at 1,000 rpm, and then incubated at 37° C. for ˜45 hrs. […] After ˜45 hours at 37° C., liver cell viability was assessed using CellTiter-Fluor (Promega) and then parasite load was determined using Bright-Glo (Promega). The relative fluorescence and luminescence signal intensity of each well was evaluated with an EnVision System. The luminescence signal in the presence of compounds was normalized to the negative control (DMSO). Dose-response analysis was performed with GraphPad Prism to yield the reported EC50 values.
Anti-Plasmodium activity was evaluated in the parasite's liver stage using a previously reported high-throughput assay. In this assay, luciferase-expressing P. berghei (murine) parasites are used to infect human hepatoma cells (HepG2) and parasite load is assessed with a luminometer subsequent to evaluating HepG2 viability using a commercially available quantification kit that measures intracellular protease activity.
Specifically, their ability to inhibit P. berghei infection in two human hepatoma cell lines (HepG2 and Huh7) as well as cytotoxicity against HepG2 and Huh7 cells was determined as described above. Liver cell cytotoxicity was evaluated with two different commercially available assays, one that tests for intracellular protease activity with a fluorescence reporter and another that relies on the luminescent detection of total ATP.

Sequence of GFP-PfPK9 (Q8IEG4 entry or part of it): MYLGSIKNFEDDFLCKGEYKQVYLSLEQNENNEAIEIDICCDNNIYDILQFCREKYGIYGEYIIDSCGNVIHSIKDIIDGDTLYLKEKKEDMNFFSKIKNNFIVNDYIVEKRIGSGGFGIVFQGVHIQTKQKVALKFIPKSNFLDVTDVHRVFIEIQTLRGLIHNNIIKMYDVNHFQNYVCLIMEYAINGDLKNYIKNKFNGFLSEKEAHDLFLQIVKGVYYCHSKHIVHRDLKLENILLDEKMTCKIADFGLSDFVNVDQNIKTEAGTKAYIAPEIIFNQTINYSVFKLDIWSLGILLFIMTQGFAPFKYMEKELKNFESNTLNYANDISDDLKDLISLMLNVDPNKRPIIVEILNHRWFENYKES

CCCn1c(NC(=O)c2cccc(C(N)=O)c2)nc2ccccc21 [HS-206 (1), (E)-N-(1-Propyl-1,3-dihydro-2H-benzo[d]imidazol-2-ylidene)isophthalamide]
Kd (GFP-PfPK9): 0.2 µM | IC50 (P. berghei; Plasmodium berghei, HepG2, parasite load): ~7 µM | IC50 (P. berghei; parasite load): 6.6 µM
